Data as given in US4288597A, “1,2-Diacylamino-1,2-di(4-pyridyl)ethanes and process for producing thereof” (Laboratorios Made, S.A., priority 1979, dated 1981).

Key:
[1] = Acute toxicity, lethal dose 50 (Litchfield-Wilcoxon), intraperitoneal; conditions: mouse, in vivo, ip, mice, deaths recorded three days after administration
Experimental: (§1) The object of the studies carried out on all the products was to calculate the acute toxicity, expressed in the form of lethal dose 50, and to evaluate the analgesic effect by administering the drugs orally and intraperitoneally.
Tests were carried out on I.C.R. Swiss albino mice of both sexes weighing between 20 and 35 grams. The products were administered intraperitoneally,recording the number of dead animals three days after administration of the drugs. The statistical method used for the calculation of lethal dose 50 was the Litchfield-Wilcoxon method.

[2] = Analgesic effect by intraperitoneal route (Siegmund technique modified by Koster, 1% acetic acid irritant); type: in vivo; conditions: products 1 mg/kg, reference 25 mg/kg, 30 minutes after administration, dextropropoxyphene = 1
Experimental: There is a series of 19 products, with analgesic activity, the effects whereof were tested using dextropropoxyphene as a reference drug.
as §1
1. ACTIVITY BY INTRAPERITONEAL ROUTE
(§2) The analgesic effect was evaluated according to the technique of Siegmund et al. (Proc. Soc. Exp. Biol. Med. 95, 729, 1957) modified by Koster et al. (Fed. Proc. 18, 412, 1957), a chemical analgesia test which uses 1% acetic acid as an irritant. The drugs under study were administered at the dose of 1 mg/kg and the reference drug at 25 mg/kg. The evaluation was made 30 minutes after the administrations. The results are given in Table B-1, expressing the results in the form of relative potency (F), giving dextropropoxyphene value 1. [formula]

[3] = Analgesic effect by oral route (Siegmund technique modified by Koster, 1% acetic acid irritant); type: in vivo; conditions: products 5 mg/kg, dextropropoxyphene = 1
Experimental: as §1, §2
2. ACTIVITY BY ORAL ROUTE
The foregoing procedure was used, with the difference that the dose of the products under study was 5 mg/kg.

SMILES	LD50 at 72 h [1]	Analgesic effect by intraperitoneal route, relative potency F [2]	Analgesic effect by oral route, relative potency F [3]
CCC(=O)O[C@](Cc1ccccc1)(c1ccccc1)[C@H](C)CN(C)C [Dextropropoxyphene, dextropropoxyphene, reference compound]	140 mg/kg		
CC(=O)NC(c1ccncc1)C(NC(C)=O)c1ccncc1 (stereo not shown) [Example 1]	1120 mg/kg	1.01	0.85
CCCC(CCC)C(=O)NC(c1ccncc1)C(NC(=O)C(CCC)CCC)c1ccncc1 (stereo not shown) [Example 2]	> 1600 mg/kg	1.43	0.95
O=C(NC(c1ccncc1)C(NC(=O)c1ccccc1)c1ccncc1)c1ccccc1 (stereo not shown) [Example 3]	> 1300 mg/kg	1.21	1.35
Cc1ccc(C(=O)NC(c2ccncc2)C(NC(=O)c2ccc(C)cc2)c2ccncc2)cc1 (stereo not shown) [Example 4]	> 1660 mg/kg	1.04	1.11
Cc1cccc(C(=O)NC(c2ccncc2)C(NC(=O)c2cccc(C)c2)c2ccncc2)c1 (stereo not shown) [Example 5]	> 1400 mg/kg	1.85	1.64
Cc1ccccc1C(=O)NC(c1ccncc1)C(NC(=O)c1ccccc1C)c1ccncc1 (stereo not shown) [Example 6]	> 1600 mg/kg	1.09	1.67
Cc1cc(C)cc(C(=O)NC(c2ccncc2)C(NC(=O)c2cc(C)cc(C)c2)c2ccncc2)c1 (stereo not shown) [Example 7]	> 1600 mg/kg	1.53	1.17
O=C(NC(c1ccncc1)C(NC(=O)c1ccc(Cl)cc1)c1ccncc1)c1ccc(Cl)cc1 (stereo not shown) [Example 8]	> 1600 mg/kg	1.58	1.29
O=C(NC(c1ccncc1)C(NC(=O)c1cccc(Cl)c1)c1ccncc1)c1cccc(Cl)c1 (stereo not shown) [Example 9]	> 1300 mg/kg	1.08	1.05
O=C(NC(c1ccncc1)C(NC(=O)c1ccccc1Cl)c1ccncc1)c1ccccc1Cl (stereo not shown) [Example 10]	1060 mg/kg	1.37	1.34
O=C(NC(c1ccncc1)C(NC(=O)c1cc(Cl)cc(Cl)c1)c1ccncc1)c1cc(Cl)cc(Cl)c1 (stereo not shown) [Example 11]	> 1200 mg/kg	0.84	1.22
O=C(NC(c1ccncc1)C(NC(=O)c1ccc(F)cc1)c1ccncc1)c1ccc(F)cc1 (stereo not shown) [Example 12]	1110 mg/kg	1.17	0.81
O=C(NC(c1ccncc1)C(NC(=O)c1ccc(C(F)(F)F)cc1)c1ccncc1)c1ccc(C(F)(F)F)cc1 (stereo not shown) [Example 13]	> 1200 mg/kg	1.38	1.19
COc1ccc(C(=O)NC(c2ccncc2)C(NC(=O)c2ccc(OC)cc2)c2ccncc2)cc1 (stereo not shown) [Example 14]	> 1600 mg/kg	1.09	1.23
CS(=O)(=O)c1ccc(C(=O)NC(c2ccncc2)C(NC(=O)c2ccc(S(C)(=O)=O)cc2)c2ccncc2)cc1 (stereo not shown) [Example 15]	> 2000 mg/kg	1.43	1.05
O=C(NC(c1ccncc1)C(NC(=O)c1ccc([N+](=O)[O-])cc1)c1ccncc1)c1ccc([N+](=O)[O-])cc1 (stereo not shown) [Example 16]	> 1600 mg/kg	1.38	1.25
CC(C)(C)c1ccc(C(=O)NC(c2ccncc2)C(NC(=O)c2ccc(C(C)(C)C)cc2)c2ccncc2)cc1 (stereo not shown) [Example 17]	> 1600 mg/kg	1.11	1.17
O=C(Cc1ccccc1)NC(c1ccncc1)C(NC(=O)Cc1ccccc1)c1ccncc1 (stereo not shown) [Example 18]	1540 mg/kg	0.96	2.13
O=C(NC(c1ccncc1)C(NC(=O)c1ccc(-c2ccccc2)cc1)c1ccncc1)c1ccc(-c2ccccc2)cc1 (stereo not shown) [Example 19]	> 1600 mg/kg	1.08	1.13
